From US20020042393A1, “Excipient” (priority 1998, published 2002)

Experiments:
Format in all cases: physicochemical
[1] = Proportion of particles of 75 μm or more (Air Jet Sieve); settings: excipient powder; listed as B
Procedure: Five grams of trehalose was weighed onto a screen having a screen opening of 75 μm, and sifted with Air Jet Sieve (Model 200LS, mfd. by ALPINE) for 5 minutes, and the weight percentage of the weight of particles remaining on the screen based on the total weight of particles was calculated as the proportion of particles of 75 μm or more.

[2] = Average particle size (sieving, 50% cumulative weight); settings: excipient powder; listed as B
Procedure: Five grams of trehalose was sifted through screens having screen openings of 500 μm, 300 μm and 250 μm, respectively, and then sifted with Air Jet Sieve by using screens having screen openings of 150 μm, 75 μm, 45 μm, 38 μm and 32 μm, respectively. The oversize particle weight percentage [%] was calculated for each screen, and the average particle size is expressed as a particle size corresponding to a cumulative weight percentage of 50%.

Apparent specific volume = settings: excipient powder; listed as B
Excerpt: The whole of 10 g of trehalose powder was gently poured into a 100-ml measuring cylinder without making an impact (in this case, a cylinder having an outside diameter smaller than the inside diameter of the measuring cylinder was placed in the measuring cylinder, and it was slowly lifted after pouring the trehalose), and the apparent specific volume was expressed as a value obtained by dividing the read volume by the weight of the trehalose.

[3] = Angle of repose (Sugiwara's instrument); settings: excipient powder; listed as B
Excerpt: Measured by means of a Sugiwara's instrument for measuring angle of repose (Yakuzaigaku 27, p. 260, 1965).

[4] = Whiteness of powder (color analyzer); settings: excipient powder; listed as B
Procedure: (§1) For powder of trehalose or a pharmaceutical composition containing trehalose, values of L, a and b were measured with a color analyzer (TC-1800MKII, mfd. by Tokyo Denshoku Co., Ltd.), and the whiteness of the trehalose or pharmaceutical composition was calculated by the following equation: […]

[5] = Water content (Karl Fisher) of tablets before and after storage; settings: tablets compressed at 500 kg/cm^2; 0 day; listed as B
Procedure: Determined as a value obtained by measuring about 0.1 g of trehalose and determining its water content by the Karl Fisher method.
One hundred grams of commercial “Trehaose” (available from Hayashibara Biochemical Laboratories, Inc.) was dissolved in water to a concentration of about 35 wt %, and the resulting solution was concentrated under reduced pressure with heating at 60° C. so as to have a concentration of about 75 wt %, and allowed to stand at room temperature to precipitate crystals, which were washed with 50 ml of water. Glucose was removed by carrying out the above purification procedure once or twice, to increase the trehalose purity. Trehalose A was obtained by carrying out the purification procedure twice to obtain crystals, drying the crystals, grinding the dried crystals with a bantam mill (number of revolutions 15,000 rpm, feed rate 5 kg/hr, and screen opening 2.0 mmφ), and then sifting the ground crystals through a […]. Trehalose B was obtained by carrying out the purification procedure once to obtain crystals, drying the crystals, grinding the dried crystals with a bantam mill (number of revolutions 10,000 rpm, feed rate 5 kg/hr, and screen opening 2.00 mmφ), and then sifting the ground crystals through a 350-μm screen. Trehalose C was obtained by carrying out the purification procedure once to obtain crystals, drying the crystals, grinding the dried crystals with a bantam mill (number of revolutions 8,000 rpm, feed rate 5 kg/hr, and screen opening 2.0 mmφ), and then sifting the ground crystals through a 350-μm screen. […] Each of trehaloses A to C was compressed into tablets at a compression pressure of 500 kg/cm^2, and the tablet hardness immediately after the compression and the tablet hardness after standing for 3 days in an atmosphere of 40° C. and 75% RH after the compression were compared.
“Trehaose” (available from Hayashibara Bioscience Laboratories Co., Ltd.) was purified once by the method described in Example 1 to obtain crystals, which were dried, ground with a bantam mill (number of revolutions 12,000 rpm, feed rate 5 kg/hr, and screen opening 2.0 mmφ) and then dried at 105° C. for 4 hours to obtain trehalose anhydrous crystals. These crystals were compressed into tablets at a compression pressure of 500 kg/cm^2, and the tablet hardnesses of the tablets were compared in the same manner as in Example 1.

[6] = Tablet hardness (Schleuniger hardness meter); settings: listed as B
[7] = Change in whiteness of excipient mixed with drug at 40° C. and 75% RH (reactivity); settings: listed as B
Procedure: as §1
One gram of each of the trehaloses obtained in Example 1 and 1 g of isoniazid were mixed and then allowed to stand in an atmosphere of 40° C. and 75% RH, and the change in whiteness of the trehalose was observed. On the other hand, 1 g of each of the trehaloses obtained in Example 1 and 1 g of aminophyline were mixed and then allowed to stand in an atmosphere of 40° C. and 75% RH, and the change in whiteness of the trehalose was observed.
One gram of 100-mesh lactose (available from De Melkindustrie Veghel bv) or 1 g of Mannit S (available from Tohwa Kasei Co., Ltd.) and 1 g of aminophyline were mixed and then allowed to stand in an atmosphere of 40° C. and 75% RH, and the change in whiteness of the lactose or Mannit S was observed.
As a starting material. […]

[8] = Disintegration time according to Japanese Pharmacopoeia; settings: listed as B
Procedure: The disintegration time of each of six molded products was measured by the use of ion-exchanged water according to the disintegration time measuring method prescribed in the 13th revised Japanese Pharmacopoeia, and the average of measured values was calculated.

[9] = Colour change of molded product stored at 40° C. for 3 months; settings: Example 9 process molded product in glass bottle
Procedure: This molded product and the rapidly disintegrable molded product obtained in Example 9 by using the trehalose B were placed in separate glass bottles, respectively, and stored at 40° C. for 3 months.

[10] = Example 10: as Example 9 but molded at 60 kg/cm^2

OC[C@H]1O[C@H](O[C@H]2O[C@H](CO)[C@@H](O)[C@H](O)[C@H]2O)[C@H](O)[C@@H](O)[C@@H]1O [Trehalose B, trehalose]
Proportion of particles of 75 μm or more [1]: 46%
Average particle size [2]: 72 μm
Apparent specific volume (Apparent specific volume): 2.2 cm^3/g
Angle of repose [3]: 42 °
Whiteness [4]: 97%
Water content [5]: 9.8%
Tablet hardness ([6]; Example 8: molded product of trehalose only, molded at 30 kg/cm^2, dried overnight at 40° C.): 6.6 kg
Tablet hardness [6, 10]: 9.4 kg
Tablet hardness ([6]; process of Example 9: 950 g excipient + 50 g phenylpropanolamine hydrochloride, molded at 30 kg/cm^2): 6.5 kg
Tablet hardness ([6]; tablets compressed at 500 kg/cm^2, 0 day (immediately after compression)): 2.5 kgf
Tablet hardness ([6]; tablets compressed at 500 kg/cm^2, 3 days at 40° C. and 75% RH): 2.4 kgf
Whiteness ([7]; 1 g excipient + 1 g aminophyline, 0 day): 99%
Whiteness ([7]; 1 g excipient + 1 g aminophyline, 40° C. and 75% RH, 1 month): 97%
Whiteness ([7]; 1 g excipient + 1 g isoniazid, 0 day): 98%
Whiteness ([7]; 1 g excipient + 1 g isoniazid, 40° C. and 75% RH, 1 month): 96%
Disintegration time according to Japanese Pharmacopoeia ([8]; Example 8: molded product of trehalose only, 30 kg/cm^2): 12 s
Disintegration time according to Japanese Pharmacopoeia [8, 10]: 45 s
Disintegration time according to Japanese Pharmacopoeia ([8]; process of Example 9: 950 g excipient + 50 g phenylpropanolamine hydrochloride, 30 kg/cm^2): 14 s
Change in color of molded product [9]: somewhat yellowed
